MIC data for eight molecules are collected here from US11713335B2, “Aminocoumarin compounds and methods of their use” (President and Fellows of Harvard College, priority 2018, dated 2023).

≈ marks a conversion by molar mass, not a printed value. Where two headings read alike, the source gives them in different places.

As a reminder, the MIC is the lowest concentration that inhibits growth of the organism.

For one test, the system named is E. coli MC4100. The test is described as follows: Minimal inhibitory concentration, E. coli MC4100. The class given is cell-based. Particulars: 16 hour minimal inhibitory concentration at 37° C., read-out: MIC (μM) E. coli MC4100 ara+. The gist of the method: (§1)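 MIC, in µM, taken as the lowest compound concentration preventing growth by OD600 after 16 h static incubation at 37 °C. Compound was twofold serially diluted in bacteria grown overnight in LB, or TSA for S. aureus, and diluted 1:100 twice.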

In a further test the test system is E. cloacae 13047. Description: Minimal inhibitory concentration, E. cloacae 13047. Particulars: 16 hour minimal inhibitory concentration at 37° C., read-out: MIC (μM) E. cloacae 13047. The class given is cell-based. An outline of the steps:
as §1

The next test relates to E. coli 25922. The test is described as follows: Minimal inhibitory concentration, E. coli 25922. The class given is cell-based. The settings on record: 16 hour minimal inhibitory concentration at 37° C., read-out: MIC (μM) E. coli 25922. An outline of the steps: as §1
The next test deals with S. aureus MW2. Description: Minimal inhibitory concentration, S. aureus MW2. It counts as cell-based. The settings on record: 16 hour minimal inhibitory concentration at 37° C., read-out: MIC (μM) S. aureus MW2 (MRSA). The gist of the method:
as §1

The test system of the next test is A. baumannii 19606. The test is described as follows: Minimal inhibitory concentration, A. baumannii 19606. It counts as cell-based. Particulars: 16 hour minimal inhibitory concentration at 37° C., read-out: MIC (μM) A. baumannii 19606. An outline of the steps:
as §1

In another test the test system is S. aureus RN4220. Description: Minimal inhibitory concentration, S. aureus RN4220. The class given is cell-based. The settings on record: 16 hour minimal inhibitory concentration at 37° C., read-out: MIC (μM) S. aureus RN4220. The gist of the method: as §1
For a further test, the system named is WT E. coli. The test is described as follows: Minimal inhibitory concentration in wild-type E. coli. It counts as cell-based, Escherichia coli. The settings on record: wild-type E. coli, 37° C., 16 hours, read-out: MIC (μM) in WT E. coli. An outline of the steps: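 Broth microdilution: saturated LB overnight culture diluted 1:100 twice, compound serially two-fold diluted across the plate from DMSO stock. Static incubation 16 hours at 37° C, OD600 read; MIC taken as lowest concentration inhibiting growth.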

The test system of the next test is K. pneumoniae 700721. Description: Minimal inhibitory concentration, K. pneumoniae 700721. The class given is cell-based. The settings on record: 16 hour minimal inhibitory concentration at 37° C., read-out: MIC (μM) K. pneumoniae 700721. An outline of the steps: as §1
Setting [1] is: Staphylococcus aureus, MRSA, 16 h.
Where [2] appears, read: Acinetobacter baumannii, 19606, 16 h.
[3] abbreviates: Staphylococcus aureus, RN4220, 16 h.

As to `CO[C@@H]1[C@@H](OC(N)=O)[C@@H](O)[C@H](Oc2ccc3c(O)c(NC(=O)c4cc(-c5ccccc5)c(O)cc4O)c(=O)oc3c2C)OC1(C)C` [Compound 67], the MIC with E. coli MC4100 is 18 µM (≈ 11.5 µg/mL); in the test with E. cloacae 13047 it was >100 µM; in the test with E. coli 25922, 5 µM (≈ 3.18 µg/mL); in the test with S. aureus MW2 it was 5 µM (≈ 3.18 µg/mL); in the test with A. baumannii 19606 it was >50 µM; in the test on S. aureus RN4220, 10 µM (≈ 6.37 µg/mL). Besides, the MIC in the test on WT E. coli is given as 18 µM (≈ 11.5 µg/mL); with K. pneumoniae 700721 it was 79 µM (≈ 50.3 µg/mL).

`CO[C@@H]1[C@@H](OC(N)=O)[C@@H](O)[C@H](Oc2ccc3c(O)c(NC(=O)c4cccc(C5CCC5)c4)c(=O)oc3c2C)OC1(C)C` [Compound 53]: the MIC in the test on E. coli MC4100 is recorded as >200 µM; with E. cloacae 13047, >100 µM; in the test on E. coli 25922, >200 µM; in the test with S. aureus MW2, 11 µM (≈ 6.41 µg/mL); in the test with A. baumannii 19606, >50 µM; in the test on S. aureus RN4220, 11 µM (≈ 6.41 µg/mL). Moreover, the minimum inhibitory concentration (MIC) with WT E. coli was >300 µM; in the test on K. pneumoniae 700721, >100 µM.

With `CO[C@@H]1[C@@H](OC(N)=O)[C@@H](O)[C@H](Oc2ccc3c(O)c(NC(=O)c4cccc(-c5ccc(Br)cc5)c4)c(=O)oc3c2C)OC1(C)C` [Compound 68], the MIC is 18 µM (≈ 12.3 µg/mL) in the test with E. coli MC4100 (Escherichia coli, MC4100, 16 h); > 100 µM in the test on E. cloacae 13047 (Enterobacter cloacae, 13047); 18 µM (≈ 12.3 µg/mL) with E. coli 25922 (Escherichia coli, 25922, 16 h); 0.91 µM (≈ 0.622 µg/mL) with S. aureus MW2 (setting [1]); 18 µM (≈ 12.3 µg/mL) in the test with A. baumannii 19606 (setting [2]); 0.91 µM (≈ 0.622 µg/mL) in the test on S. aureus RN4220 (setting [3]). The MIC in the test with WT E. coli (Escherichia coli) is 18 µM (≈ 12.3 µg/mL); in the test with K. pneumoniae 700721 (Klebsiella pneumoniae, 700721), > 100 µM.

With `CO[C@@H]1[C@@H](OC(N)=O)[C@@H](O)[C@H](Oc2ccc3c(O)c(NC(=O)c4cccc(N5CCN(C)CC5)c4)c(=O)oc3c2C)OC1(C)C` [Compound 52], the minimal inhibitory concentration (MIC) is > 200 µM with E. coli MC4100 (Escherichia coli, MC4100, 16 h); > 100 µM with E. cloacae 13047 (Enterobacter cloacae, 13047); 160 µM (≈ 100 µg/mL) in the test with E. coli 25922 (Escherichia coli, 25922, 16 h); > 100 µM in the test on S. aureus MW2 (setting [1]); > 50 µM with A. baumannii 19606 (setting [2]); > 100 µM in the test on S. aureus RN4220 (setting [3]). For the same molecule, the minimum inhibitory concentration (MIC) with WT E. coli (Escherichia coli) was > 300 µM; in the test on K. pneumoniae 700721 (Klebsiella pneumoniae, 700721), > 100 µM.

Turning to `CO[C@@H]1[C@@H](OC(N)=O)[C@@H](O)[C@H](Oc2ccc3c(O)c(NC(=O)c4ccc(O)c(CC=C(C)C)c4)c(=O)oc3c2C)OC1(C)C` [Novobiocin, novobiocin, reference compound], the minimum inhibitory concentration (MIC) in the test on E. coli MC4100 (Escherichia coli, MC4100, 16 h) was 59 µM (≈ 36.1 µg/mL); in the test on E. cloacae 13047 (Enterobacter cloacae, 13047) it was > 100 µM; in the test with E. coli 25922 (Escherichia coli, 25922, 16 h) it was 40 µM (≈ 24.5 µg/mL); in the test with S. aureus MW2 (setting [1]) it was 0.25 µM (≈ 0.153 µg/mL); in the test with A. baumannii 19606 (setting [2]), 1.27 µM (≈ 0.778 µg/mL); with S. aureus RN4220 (setting [3]), 0.2 µM (≈ 0.123 µg/mL). In addition, the MIC in the test on WT E. coli (Escherichia coli) was 59 µM (≈ 36.1 µg/mL); with K. pneumoniae 700721 (Klebsiella pneumoniae, 700721) it was > 100 µM.

For `CO[C@@H]1[C@@H](OC(N)=O)[C@@H](O)[C@H](Oc2ccc3c(O)c(NC(=O)c4cccc(-c5ccc(C(F)(F)F)cc5)c4)c(=O)oc3c2C)OC1(C)C` [Compound 55], the MIC is given as >200 µM with E. coli MC4100; >100 µM in the test on E. cloacae 13047; >200 µM in the test with E. coli 25922; 0.93 µM (≈ 0.626 µg/mL) with S. aureus MW2; 37 µM (≈ 24.9 µg/mL) with A. baumannii 19606; 1.49 µM (≈ 1 µg/mL) in the test with S. aureus RN4220. The MIC with WT E. coli is >300 µM; with K. pneumoniae 700721, >100 µM.

For the molecule `CO[C@@H]1[C@@H](OC(N)=O)[C@@H](O)[C@H](Oc2ccc3c(O)c(NC(=O)c4cccc(-c5ccc(C)cc5)c4)c(=O)oc3c2C)OC1(C)C` [Compound 20], the MIC in the test on E. coli MC4100 is on record as 26 µM (≈ 16.1 µg/mL); in the test with E. cloacae 13047 it was >100 µM; with E. coli 25922 it was 40 µM (≈ 24.7 µg/mL); in the test with S. aureus MW2, 3 µM (≈ 1.86 µg/mL); in the test with A. baumannii 19606 it was 40 µM (≈ 24.7 µg/mL); in the test on S. aureus RN4220 it was 2.5 µM (≈ 1.55 µg/mL). For the same molecule, the MIC is on record as 26 µM (≈ 16.1 µg/mL) in the test on WT E. coli and >100 µM in the test with K. pneumoniae 700721.

For `COc1ccc(-c2cccc(C(=O)Nc3c(O)c4ccc(O[C@@H]5OC(C)(C)[C@H](OC)[C@@H](OC(N)=O)[C@H]5O)c(C)c4oc3=O)c2)cc1` [Compound 46], the minimum inhibitory concentration (MIC) in the test with E. coli MC4100 (Escherichia coli, MC4100, 16 h) was > 200 µM; in the test with E. cloacae 13047 (Enterobacter cloacae, 13047) it was > 100 µM; with E. coli 25922 (Escherichia coli, 25922, 16 h), > 200 µM; with S. aureus MW2 (setting [1]), 3 µM (≈ 1.9 µg/mL); with A. baumannii 19606 (setting [2]), > 50 µM; in the test with S. aureus RN4220 (setting [3]), 5 µM (≈ 3.17 µg/mL). In addition, the MIC with WT E. coli (Escherichia coli) is > 300 µM; with K. pneumoniae 700721 (Klebsiella pneumoniae, 700721), > 100 µM.
